Source: patent US6010478A, “Trans-mucosal particle delivery” (PowderJect Research Limited, priority 1995, dated 2000)
Counter-ions that a name gives are not always drawn. Like-named read-outs stand apart in the source and are kept apart here.

Experiments:
oral mucosa [1] = assay: Visual assessment of delivery sites for damage or irritation of mucosal tissues; format: in vivo, human; details: 3 mg particles 38-53 μm, needleless syringe, 24-48 hours after delivery, 14 subjects
Protocol: A randomized, double-blind, negatively controlled study was carried out in normal, healthy human subjects as follows. Initially, a single 3 mg dose of lignocaine HCL particles sized between 38 and 53 μm was delivered from a needleless syringe constructed in accordance with the invention. The lignocaine was delivered to the oral mucosa adjacent to the number 12 and 22 lateral incisors in 14 trial subjects. The delivery sites were then visually assessed for evidence of damage or irritation to the mucosal tissues.

oral mucosa [2] = tested on: oral mucosa; parameters: species or system human; details: in vivo
Protocol: In a second study, a single 3.0 mg dose of lignocaine HCL particles (as above) was delivered using a needleless syringe, and a single 0.2 mL dose of 2% lignocaine HCL was delivered via needle-syringe injection. Pain associated with the administration of each treatment was scored in all 14 subjects using a 100 mm visual analogue scale immediately after each treatment, wherein 100% indicates a painful treatment, and 0% indicates a pain-free treatment. The needleless syringe employed in the study was operated using 40 bar helium driving gas to expel anaesthetic particles from a flexible, eversible dome-shaped membrane comprised of a 400 μm, 6 mm polyurethane film.

oral mucosa [3] = assay: Local anaesthesia: pain response to probing of treated oral mucosa, visual analogue scale; format: in vivo, human; details: 3.0 mg particles by needleless syringe
Protocol: A randomized, double-blind study was then carried out as follows. Treatments were given to 14 subjects over the course of three visits. The treatments provided to the subjects in each visit were either a single 3.0 mg dose of Lignocaine HCL particles from the above-described needleless syringe device, or 0.0 mg (as a blinded negative control). Accordingly, treatments provided over the course of the three visits were either: two actual (3.0 mg) doses of the anaesthetic particles and one placebo; or two placebos and one actual (3.0 mg) dose. Pain stimulus was provided by probing oral mucosa with the back of a 27G dental needle, wherein the probe sequence was a probe on an untreated area of the mucosa, and then a probe on the treated area of the mucosa 1 minute post delivery. Again, the pain associated with the probe of the untreated and treated areas was scored on visual analogue scales using the above scoring methods immediately after each probe.

[4] = Serum testosterone pharmacokinetics after transmucosal (OralJect needleless syringe) or subcutaneous delivery; format: in vivo, female New Zealand White rabbit; details: for Cmax: 2 mg
Protocol: Testosterone (Sigma Chemicals) was milled and sieved into a particle size range (approximately 50-100 μm) suitable for transmucosal delivery from a needleless syringe using standard stainless steel mesh sieves. Female New Zealand White rabbit subjects weighing between 2.2-2.8 kg were used and allowed food and water ad libitum. The rabbits (n=8) were randomly assigned to one of two treatment groups. The first treatment group received testosterone (2.0 mg dose) as a suspension in 35% polyvinylpyrrolidone C-30 in water (6 mg/g testosterone concentration) via subcutaneous injection. The second treatment group received testosterone (2.0 mg dose of testosterone particles ranging from 53-75 μm) as two 1.0 mg transmucosal administrations from an OralJect™ needleless syringe device abutted against the cheek mucosa.
Whole blood (1.0 ml) was taken at times 0, 0.5, 1, 2, 4, 6, 8, 12, 24 and 48 hours, the serum aspirated and assayed for testosterone by radioimmunoassay (DPC). The OralJect™ device is a prototype device of the present invention that is actuated by helium at 40 bar.

SMILES | tissue reaction at delivery site (oral mucosa [1]) | pain associated with administration (mean VAS score) (oral mucosa [2]) | level of local anaesthesia relative to placebo treatments (oral mucosa [3]; 1 minute post delivery) | pain response score to probe of treated area (mean VAS) (oral mucosa [3]; probe 1 minute post delivery, untreated probe 55.6%, placebo 30.6%) | Cmax comparison between treatments ([4]; OralJect transmucosal vs subcutaneous, 2.0 mg, rabbit) | pharmacokinetic profile, transmucosal vs subcutaneous ([4]; OralJect transmucosal vs subcutaneous, rabbit) | % BA (% bioavailability) ([4]; OralJect transmucosal, 2.0 mg, rabbit) | time of second minor peak of serum testosterone ([4]; OralJect transmucosal, post administration, possible depot effect) | Cmax ([4]; rabbit, serum, OralJect transmucosal (cheek mucosa), 2 x 1.0 mg particles 53-75 μm, helium 40 bar, rabbit, read-out: Cmax (mean maximum serum concentration)) | Cmax ([4]; rabbit, serum, sc, subcutaneous injection, 2.0 mg suspension in 35% polyvinylpyrrolidone C-30 in water, rabbit, read-out: Cmax (mean maximum serum concentration)) | Cmax ([4]; rabbit, serum, sc, subcutaneous injection, 2.0 mg, rabbit, read-out: Cmax range) | Tmax ([4]; rabbit, serum, OralJect transmucosal, 2.0 mg, in all animals)
CCN(CC)CC(=O)Nc1c(C)cccc1C [lignocaine HCL, lignocaine hydrochloride] | no evidence of any tissue reaction was observed | 49.9% | superior level of local anaesthesia relative to the placebo treatments | 15.0% |  |  |  |  |  |  |  | 
C[C@]12CC[C@H]3[C@@H](CCC4=CC(=O)CC[C@@]43C)[C@@H]1CC[C@@H]2O [testosterone] |  |  |  |  | not significantly different between treatments although there was a tendency for it to be lower following OralJect™ administration | markedly different from that achieved following subcutaneous administration | ~48.3% | 12 h | 25.5 ± 3.5 nM | 34.8 ± 6.9 nM | 26.9 to 55.2 nM | 30 min
